Experiments:
Assay in all cases: relative viability (nuclei count vs DMSO), 5 days (fraction); higher = more cells survive
[1] = compound: CC1CC(=O)N(C2=CN=C(N=C2N1C3CCCC3)NC4=C(C=C(C=C4)C(=O)NC5CCN(CC5)C)OC)C [NPK76-II-72-1] + Cc1nc(NC(=O)N2CCC[C@H]2C(N)=O)sc1-c1ccnc(C(C)(C)C(F)(F)F)c1 [Alpelisib] (partner 2 µM)
Method in brief: (§1)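 Five library-drug doses in √10 steps were combined with a fixed anchor-drug dose, or a single drug was given alone, by pin tool to lung cancer cell lines in 1536-well plates the day after seeding. Nuclei were stained and counted after 5 days. Relative viability is the nuclei count in treated wells over that in vehicle wells, taken as the median of duplicate plates.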

BI-2536 + Linsitinib = compound: CC[C@@H]1C(=O)N(C)c2cnc(Nc3ccc(C(=O)NC4CCN(C)CC4)cc3OC)nc2N1C1CCCC1 [BI-2536] + C[C@]1(O)C[C@@H](c2nc(-c3ccc4ccc(-c5ccccc5)nc4c3)c3c(N)nccn32)C1 [Linsitinib] (partner 1 µM)
Method in brief: as §1

BI-2536 + Bortezomib = compound: CC[C@@H]1C(=O)N(C)c2cnc(Nc3ccc(C(=O)NC4CCN(C)CC4)cc3OC)nc2N1C1CCCC1 [BI-2536] + CC(C)C[C@H](NC(=O)[C@H](Cc1ccccc1)NC(=O)c1cnccn1)B(O)O [Bortezomib] (partner 0.002 µM)
Method in brief: as §1

NPK76-II-72-1 + Olaparib = compound: CC1CC(=O)N(C2=CN=C(N=C2N1C3CCCC3)NC4=C(C=C(C=C4)C(=O)NC5CCN(CC5)C)OC)C [NPK76-II-72-1] + O=C(c1cc(Cc2n[nH]c(=O)c3ccccc23)ccc1F)N1CCN(C(=O)C2CC2)CC1 [Olaparib] (partner 8 µM)
Method in brief: as §1

## PC-3 [JPC-3]
[1]; first compound 0.01 µM
  relative viability: 1.01
[1]; first compound 0.03162 µM
  relative viability: 0.949
[1]; first compound 0.1 µM
  relative viability: 0.987
[1]; first compound 0.3162 µM
  relative viability: 0.985
[1]; first compound 1 µM
  relative viability: 1.09
BI-2536 + Linsitinib; first compound 0.01 µM
  relative viability: 0.974
BI-2536 + Linsitinib; first compound 0.03162 µM
  relative viability: 0.899
BI-2536 + Linsitinib; first compound 0.1 µM
  relative viability: 1
BI-2536 + Linsitinib; first compound 0.3162 µM
  relative viability: 0.756
BI-2536 + Linsitinib; first compound 1 µM
  relative viability: 0.259
BI-2536 + Bortezomib; first compound 0.01 µM
  relative viability: 0.799
BI-2536 + Bortezomib; first compound 0.03162 µM
  relative viability: 0.93
BI-2536 + Bortezomib; first compound 0.1 µM
  relative viability: 0.834
BI-2536 + Bortezomib; first compound 0.3162 µM
  relative viability: 0.5
BI-2536 + Bortezomib; first compound 1 µM
  relative viability: 0.233
NPK76-II-72-1 + Olaparib; first compound 0.01 µM
  relative viability: 1.12
NPK76-II-72-1 + Olaparib; first compound 0.1 µM
  relative viability: 1.09
NPK76-II-72-1 + Olaparib; first compound 0.3162 µM
  relative viability: 1.09
NPK76-II-72-1 + Olaparib; first compound 1 µM
  relative viability: 1.2

## BEN
[1]; first compound 0.01 µM
  relative viability: 0.967
[1]; first compound 0.03162 µM
  relative viability: 1.05
[1]; first compound 0.1 µM
  relative viability: 1.01
[1]; first compound 0.3162 µM
  relative viability: 1.02
[1]; first compound 1 µM
  relative viability: 1.09
BI-2536 + Linsitinib; first compound 0.01 µM
  relative viability: 0.876
BI-2536 + Linsitinib; first compound 0.03162 µM
  relative viability: 0.874
BI-2536 + Linsitinib; first compound 0.1 µM
  relative viability: 0.83
BI-2536 + Linsitinib; first compound 0.3162 µM
  relative viability: 0.658
BI-2536 + Linsitinib; first compound 1 µM
  relative viability: 0.222
BI-2536 + Bortezomib; first compound 0.01 µM
  relative viability: 0.61
BI-2536 + Bortezomib; first compound 0.03162 µM
  relative viability: 0.896
BI-2536 + Bortezomib; first compound 0.1 µM
  relative viability: 0.43
BI-2536 + Bortezomib; first compound 0.3162 µM
  relative viability: 0.223
BI-2536 + Bortezomib; first compound 1 µM
  relative viability: 0.287
NPK76-II-72-1 + Olaparib; first compound 0.01 µM
  relative viability: 1.01
NPK76-II-72-1 + Olaparib; first compound 0.03162 µM
  relative viability: 1.14
NPK76-II-72-1 + Olaparib; first compound 0.1 µM
  relative viability: 1.04
NPK76-II-72-1 + Olaparib; first compound 0.3162 µM
  relative viability: 1.03
NPK76-II-72-1 + Olaparib; first compound 1 µM
  relative viability: 1

## NCI-H1666
[1]; first compound 0.01 µM
  relative viability: 0.951
[1]; first compound 0.03162 µM
  relative viability: 0.957
[1]; first compound 0.1 µM
  relative viability: 1.02
[1]; first compound 0.3162 µM
  relative viability: 0.911
[1]; first compound 1 µM
  relative viability: 1.01
BI-2536 + Linsitinib; first compound 0.01 µM
  relative viability: 0.86
BI-2536 + Linsitinib; first compound 0.03162 µM
  relative viability: 0.736
BI-2536 + Linsitinib; first compound 0.1 µM
  relative viability: 0.762
BI-2536 + Linsitinib; first compound 0.3162 µM
  relative viability: 0.224
BI-2536 + Linsitinib; first compound 1 µM
  relative viability: 0.276
BI-2536 + Bortezomib; first compound 0.01 µM
  relative viability: 0.681
BI-2536 + Bortezomib; first compound 0.03162 µM
  relative viability: 0.874
BI-2536 + Bortezomib; first compound 0.1 µM
  relative viability: 0.332
BI-2536 + Bortezomib; first compound 0.3162 µM
  relative viability: 0.251
BI-2536 + Bortezomib; first compound 1 µM
  relative viability: 0.308
NPK76-II-72-1 + Olaparib; first compound 0.01 µM
  relative viability: 0.74
NPK76-II-72-1 + Olaparib; first compound 0.03162 µM
  relative viability: 0.754
NPK76-II-72-1 + Olaparib; first compound 0.1 µM
  relative viability: 0.735
NPK76-II-72-1 + Olaparib; first compound 0.3162 µM
  relative viability: 0.84
NPK76-II-72-1 + Olaparib; first compound 1 µM
  relative viability: 0.758

## LC-2-ad
[1]; first compound 0.01 µM
  relative viability: 0.845
[1]; first compound 0.03162 µM
  relative viability: 0.921
[1]; first compound 0.1 µM
  relative viability: 0.838
[1]; first compound 0.3162 µM
  relative viability: 0.936
[1]; first compound 1 µM
  relative viability: 1
BI-2536 + Linsitinib; first compound 0.01 µM
  relative viability: 0.891
BI-2536 + Linsitinib; first compound 0.03162 µM
  relative viability: 0.85
BI-2536 + Linsitinib; first compound 0.1 µM
  relative viability: 0.382
BI-2536 + Linsitinib; first compound 0.3162 µM
  relative viability: 0.15
BI-2536 + Linsitinib; first compound 1 µM
  relative viability: 0.143
BI-2536 + Bortezomib; first compound 0.01 µM
  relative viability: 1.06
BI-2536 + Bortezomib; first compound 0.03162 µM
  relative viability: 0.923
BI-2536 + Bortezomib; first compound 0.1 µM
  relative viability: 0.112
BI-2536 + Bortezomib; first compound 0.3162 µM
  relative viability: 0.124
BI-2536 + Bortezomib; first compound 1 µM
  relative viability: 0.104
NPK76-II-72-1 + Olaparib; first compound 0.01 µM
  relative viability: 0.673
NPK76-II-72-1 + Olaparib; first compound 0.03162 µM
  relative viability: 0.72
NPK76-II-72-1 + Olaparib; first compound 0.1 µM
  relative viability: 0.702
NPK76-II-72-1 + Olaparib; first compound 0.3162 µM
  relative viability: 0.704
NPK76-II-72-1 + Olaparib; first compound 1 µM
  relative viability: 0.683

## SK-LU-1
[1]; first compound 0.01 µM
  relative viability: 1.04
[1]; first compound 0.03162 µM
  relative viability: 1.03
[1]; first compound 0.1 µM
  relative viability: 0.945
[1]; first compound 0.3162 µM
  relative viability: 1.01
[1]; first compound 1 µM
  relative viability: 1.18
BI-2536 + Linsitinib; first compound 0.01 µM
  relative viability: 1.04
BI-2536 + Linsitinib; first compound 0.03162 µM
  relative viability: 1.19
BI-2536 + Linsitinib; first compound 0.1 µM
  relative viability: 1.02
BI-2536 + Linsitinib; first compound 0.3162 µM
  relative viability: 0.3
BI-2536 + Linsitinib; first compound 1 µM
  relative viability: 0.303
BI-2536 + Bortezomib; first compound 0.01 µM
  relative viability: 0.978
BI-2536 + Bortezomib; first compound 0.03162 µM
  relative viability: 1.12
BI-2536 + Bortezomib; first compound 0.1 µM
  relative viability: 0.465
BI-2536 + Bortezomib; first compound 0.3162 µM
  relative viability: 0.201
BI-2536 + Bortezomib; first compound 1 µM
  relative viability: 0.174
NPK76-II-72-1 + Olaparib; first compound 0.01 µM
  relative viability: 0.432
NPK76-II-72-1 + Olaparib; first compound 0.03162 µM
  relative viability: 0.49
NPK76-II-72-1 + Olaparib; first compound 0.1 µM
  relative viability: 0.475
NPK76-II-72-1 + Olaparib; first compound 0.3162 µM
  relative viability: 0.511
NPK76-II-72-1 + Olaparib; first compound 1 µM
  relative viability: 0.587

## COR-L 105
[1]; first compound 0.01 µM
  relative viability: 0.908
[1]; first compound 0.03162 µM
  relative viability: 0.907
[1]; first compound 0.1 µM
  relative viability: 1.13
[1]; first compound 0.3162 µM
  relative viability: 0.905
[1]; first compound 1 µM
  relative viability: 1.13
BI-2536 + Linsitinib; first compound 0.01 µM
  relative viability: 0.829
BI-2536 + Linsitinib; first compound 0.03162 µM
  relative viability: 0.915
BI-2536 + Linsitinib; first compound 0.1 µM
  relative viability: 0.946
BI-2536 + Linsitinib; first compound 0.3162 µM
  relative viability: 0.277
BI-2536 + Linsitinib; first compound 1 µM
  relative viability: 0.312
BI-2536 + Bortezomib; first compound 0.01 µM
  relative viability: 0.764
BI-2536 + Bortezomib; first compound 0.03162 µM
  relative viability: 0.761
BI-2536 + Bortezomib; first compound 0.1 µM
  relative viability: 0.344
BI-2536 + Bortezomib; first compound 0.3162 µM
  relative viability: 0.245
BI-2536 + Bortezomib; first compound 1 µM
  relative viability: 0.237
NPK76-II-72-1 + Olaparib; first compound 0.01 µM
  relative viability: 0.586
NPK76-II-72-1 + Olaparib; first compound 0.03162 µM
  relative viability: 0.795
NPK76-II-72-1 + Olaparib; first compound 0.1 µM
  relative viability: 0.46
NPK76-II-72-1 + Olaparib; first compound 0.3162 µM
  relative viability: 0.683
NPK76-II-72-1 + Olaparib; first compound 1 µM
  relative viability: 0.794

## NCI-H1975
[1]; first compound 0.01 µM
  relative viability: 0.569
[1]; first compound 0.03162 µM
  relative viability: 0.691
[1]; first compound 0.1 µM
  relative viability: 0.592
[1]; first compound 0.3162 µM
  relative viability: 0.622
[1]; first compound 1 µM
  relative viability: 0.665
BI-2536 + Linsitinib; first compound 0.01 µM
  relative viability: 0.948
BI-2536 + Linsitinib; first compound 0.03162 µM
  relative viability: 0.861
BI-2536 + Linsitinib; first compound 0.1 µM
  relative viability: 1.03
BI-2536 + Linsitinib; first compound 0.3162 µM
  relative viability: 0.192
BI-2536 + Linsitinib; first compound 1 µM
  relative viability: 0.147
BI-2536 + Bortezomib; first compound 0.01 µM
  relative viability: 0.318
BI-2536 + Bortezomib; first compound 0.03162 µM
  relative viability: 0.248
BI-2536 + Bortezomib; first compound 0.1 µM
  relative viability: 0.243
BI-2536 + Bortezomib; first compound 0.3162 µM
  relative viability: 0.144
BI-2536 + Bortezomib; first compound 1 µM
  relative viability: 0.117
NPK76-II-72-1 + Olaparib; first compound 0.01 µM
  relative viability: 0.769
NPK76-II-72-1 + Olaparib; first compound 0.03162 µM
  relative viability: 0.841
NPK76-II-72-1 + Olaparib; first compound 0.1 µM
  relative viability: 0.716
NPK76-II-72-1 + Olaparib; first compound 0.3162 µM
  relative viability: 0.811
NPK76-II-72-1 + Olaparib; first compound 1 µM
  relative viability: 0.75

## Calu-6
[1]; first compound 0.01 µM
  relative viability: 0.952
[1]; first compound 0.03162 µM
  relative viability: 1.03
[1]; first compound 0.1 µM
  relative viability: 1.05
[1]; first compound 0.3162 µM
  relative viability: 0.972
[1]; first compound 1 µM
  relative viability: 1.14
BI-2536 + Linsitinib; first compound 0.01 µM
  relative viability: 0.923
BI-2536 + Linsitinib; first compound 0.03162 µM
  relative viability: 1.02
BI-2536 + Linsitinib; first compound 0.1 µM
  relative viability: 0.816
BI-2536 + Linsitinib; first compound 0.3162 µM
  relative viability: 0.0855
BI-2536 + Linsitinib; first compound 1 µM
  relative viability: 0.0964
BI-2536 + Bortezomib; first compound 0.01 µM
  relative viability: 0.871
BI-2536 + Bortezomib; first compound 0.03162 µM
  relative viability: 0.62
BI-2536 + Bortezomib; first compound 0.1 µM
  relative viability: 0.183
BI-2536 + Bortezomib; first compound 0.3162 µM
  relative viability: 0.144
BI-2536 + Bortezomib; first compound 1 µM
  relative viability: 0.141
NPK76-II-72-1 + Olaparib; first compound 0.01 µM
  relative viability: 0.561
NPK76-II-72-1 + Olaparib; first compound 0.03162 µM
  relative viability: 0.625
NPK76-II-72-1 + Olaparib; first compound 0.1 µM
  relative viability: 0.65
NPK76-II-72-1 + Olaparib; first compound 0.3162 µM
  relative viability: 0.62
NPK76-II-72-1 + Olaparib; first compound 1 µM
  relative viability: 0.559

— the supplement of paper PMC10307832
